The values below come from patent publication US20060178415A1, “Azole derivatives as antifungal agents” (priority 2002, published 2006).

As usually defined, the MIC is the lowest concentration that inhibits growth of the organism.

In one experiment the test system is A. fum. Briefly: In vitro antifungal MIC, NCCLS M38P broth method in RPMI 1640/MOPS pH 7. In kind it is cell-based, Aspergillus fumigatus. As to conditions: for MIC: Aspergillus fumigatus. From the text:
The in vitro evaluation of the antifungal activity of the compound of this invention (as shown in Table I) can be performed by determining the minimum inhibitory concentration (MIC) which is the concentration of the test compound in Rosewell Park Memorial Institute (RPMI) 1640 liquid medium buffered with 3-(Morpholino)propane sulfonic acid (MOPS) to pH 7, at which there is significant inhibition of the particular fungi. In practice the National Committee for Clinical Laboratory Standard (NCCLS) M27A document for Candida and Cryptococcus and M38P for Aspergillus was used to determine the MIC and readings recorded only when the Quality Control results fell into the acceptable range. After MIC results had been recorded, 100 μL from each of the well showing no growth was spread over Sabouraud Dextrose Agar (SDA) to determine the minimum fungicidal concentration (MFC).

Experiment [1] concerns the target T1, ergosterol P^450DM in C. albicans lysates (Candida albicans, UniProt P10613).
T1 construct: host or cells: C. albicans lysate
Conditions: cited from earlier work.

Experiment [2] concerns ergosterol P^450DM in A. fumigatus lysates. As to conditions: cited from earlier work.
[3] abbreviates: A. fumigatus strain 1008, RPMI 1640, MOPS pH 7.
[4] abbreviates: A. fumigatus strain Si-l, RPMI 1640, MOPS pH 7.
The mark [5] stands for this setting: A. fumigatus strain 1008, RPMI 1640, MOPS pH 7, read-out: MIC (A. fum.) 1008.
[6] abbreviates: A. fumigatus strain Si-l, RPMI 1640, MOPS pH 7, read-out: MIC (A. fum.) Si-l.
Where [7] appears, read: pH 7, read-out: MIC (A. fum.) 1008.
Setting [8] is: pH 7, read-out: MIC (A. fum.) Si-l.

≈ marks a conversion by molar mass, not a printed value. Like-named read-outs stand apart in the source and are kept apart here.

T1 sequence (P10613 whole entry): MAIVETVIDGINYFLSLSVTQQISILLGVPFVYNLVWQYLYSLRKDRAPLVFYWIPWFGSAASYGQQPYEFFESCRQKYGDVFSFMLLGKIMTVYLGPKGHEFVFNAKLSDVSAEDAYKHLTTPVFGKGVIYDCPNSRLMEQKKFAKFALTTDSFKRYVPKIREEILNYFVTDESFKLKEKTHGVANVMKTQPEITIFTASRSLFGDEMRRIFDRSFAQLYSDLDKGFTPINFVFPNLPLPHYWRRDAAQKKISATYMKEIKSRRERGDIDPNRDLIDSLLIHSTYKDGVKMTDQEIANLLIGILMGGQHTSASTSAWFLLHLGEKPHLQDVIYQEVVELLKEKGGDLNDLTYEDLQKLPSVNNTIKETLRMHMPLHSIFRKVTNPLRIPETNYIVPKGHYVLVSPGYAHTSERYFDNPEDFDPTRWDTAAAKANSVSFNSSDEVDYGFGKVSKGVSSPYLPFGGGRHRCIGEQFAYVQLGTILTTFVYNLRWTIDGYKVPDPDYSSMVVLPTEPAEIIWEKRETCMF

For `C[C@@H](N(N)C(=S)NCc1cccs1)[C@](O)(Cn1cncn1)c1ccc(F)cc1F` [Compound No. 36, 2-[(1R,2R)-2-(2,4-difluorophenyl)-2-hydroxy-1-methyl-3-(1H-1,2,4-triazol-1-yl)propyl]-4-[2-thiophenmethyl]thiosemicarbazide], the “MIC (A. fum.) 1008” value in the experiment with A. fum. (setting [3]) was 4 µg/mL (≈ 9.12 µM). Moreover, the “MIC (A. fum.) Si-l” value against A. fum. (setting [4]) was 2 µg/mL (≈ 4.56 µM).

Turning to `C[C@@H](N(N)C(=S)Nc1ccc(Cl)cn1)[C@](O)(Cn1cncn1)c1ccc(F)cc1F` [Compound No. 37, 2-[(1R,2R)-2-(2,4-Difluorophenyl)-2-hydroxy-1-methyl-3-(1H-1,2,4-triazol-1-yl)propyl]-4-[3-chloropyridin-6-yl]thiosemicarbazide], the MIC in the experiment with A. fum. (setting [5]) was 0.5 µg/mL (≈ 1.1 µM); with A. fum. (setting [6]), 1 µg/mL (≈ 2.2 µM).

As to `C[C@@H](N(N)C(=S)Nc1cnc2ccccc2c1)[C@](O)(Cn1cncn1)c1ccc(F)cc1F` [Compound No. 39, 2-[(1R,2R)-2-(2,4-Difluorophenyl)-2-hydroxy-1-methyl-3-(1H-1,2,4-triazol-1-yl)propyl]-4-[quinolin-3-yl]thiosemicarbazide], the MIC turned out to be 16 µg/mL (≈ 34.1 µM) with A. fum. (setting [7]) and 4 µg/mL (≈ 8.52 µM) with A. fum. (setting [8]).

As to `C[C@@H](n1ncn(-c2ccc(O)cc2)c1=S)[C@](O)(Cn1cncn1)c1ccc(F)cc1F` [Compound No. 41, 2-[(1R,2R)-2-(2,4-difluorophenyl)-2-hydroxy-1-methyl-3-(1,2,4-triazol-1-yl)propyl]-4-[4-hydroxyphenyl]-(2H,4H)-1,2,4-triazol-3-thione], the MIC in the experiment on A. fum. (setting [7]) and with A. fum. (setting [8]) was greater than 16 µg/mL throughout.

Consider `C[C@@H](n1ncn(-c2ccc(OCC(F)(F)C(F)F)cc2)c1=S)[C@](O)(Cn1cncn1)c1ccc(F)cc1F` [Compound No. 42, 2-[(1R,2R)-2-(2,4-difluorophenyl)-2-hydroxy-1-methyl-3-(1,2,4-triazol-1-yl)propyl]-4-[4-(2,2,3,3-tetrafluoropropoxy)phenyl]-(2H,4H)-1,2,4-triazol-3-thione], for which the minimal inhibitory concentration (MIC) amounted to 0.25 µg/mL (≈ 0.448 µM) in the experiment on A. fum. (setting [5]) and 0.125 µg/mL (≈ 0.224 µM) in the experiment on A. fum. (setting [6]).

With `C[C@@H](n1ncn(-c2ccc([N+](=O)[O-])cc2)c1=S)[C@](O)(Cn1cncn1)c1ccc(F)cc1F` [Compound No. 43, 2-[(1R,2R)-2-(2,4-difluorophenyl)-2-hydroxy-1-methyl-3-(1,2,4-triazol-1-yl)propyl]-4-[4-nitrophenyl]-(2H,4H)-1,2,4-triazol-3-thione], the results for the MIC with A. fum. (setting [7]) and with A. fum. (setting [8]) were 4 µg/mL (≈ 8.45 µM) and 2 µg/mL (≈ 4.22 µM), respectively.

Consider `C[C@@H](n1ncn(-c2ccc(-n3ncnn3)cc2)c1=S)[C@](O)(Cn1cncn1)c1ccc(F)cc1F` [Compound No. 44], for which the “MIC (A. fum.) 1008” value against A. fum. (setting [3]) was 2 µg/mL (≈ 4.03 µM). Moreover, in the experiment with A. fum. (setting [4]), the “MIC (A. fum.) Si-l” value was 2 µg/mL (≈ 4.03 µM).

Take `C[C@@H](n1ncn(-c2ccc(C(F)(F)F)cc2)c1=S)[C@](O)(Cn1cncn1)c1ccc(F)cc1F` [Compound No. 45, 2-[(1R,2R)-2-(2,4-difluorophenyl)-2-hydroxy-1-methyl-3-(1,2,4-triazol-1-yl)propyl]-4-[4-trifluoromethylphenyl]-(2H,4H)-1,2,4-triazol-3-thione]: the minimum inhibitory concentration (MIC) in the experiment with A. fum. (setting [5]) amounted to 1 µg/mL (≈ 2.01 µM); in the experiment with A. fum. (setting [6]), 0.5 µg/mL (≈ 1.01 µM).

With `C[C@@H](n1ncn(-c2ccc(OC(F)(F)F)cc2)c1=S)[C@](O)(Cn1cncn1)c1ccc(F)cc1F` [Compound No. 46, 2-[(1R,2R)-2-(2,4-Difluorophenyl)-2-hydroxy-1-methyl-3-(1H-1,2,4-triazol-1-yl)propyl]-4-[4-trifluoromethoxyphenyl]-(2H,4H)-1,2,4-triazol-3-thione], the MIC with A. fum. (setting [5]) came to 2 µg/mL (≈ 3.9 µM); with A. fum. (setting [6]) it was 0.5 µg/mL (≈ 0.976 µM).

For `COC(=O)C(c1ccccc1)n1cnn([C@H](C)[C@](O)(Cn2cncn2)c2ccc(F)cc2F)c1=S` (stereo partly drawn) [Compound No. 50], the “MIC (A. fum.) 1008” value against A. fum. (setting [3]) is greater than 16 µg/mL. Moreover, in the experiment with A. fum. (setting [4]), the “MIC (A. fum.) Si-l” value was greater than 16 µg/mL.

On to `COC(=O)C(CC(C)C)n1cnn([C@H](C)[C@](O)(Cn2cncn2)c2ccc(F)cc2F)c1=S` (stereo partly drawn) [Compound No. 51, Methyl-2-isobutyl-2-[[(1R,2R)-2-(2,4-difluorophenyl)-2-hydroxy-1-methyl-3-(1H-1,2,4-triaolyl)propyl]-(2H,4H)-1,2,4-triazol-3-thion-4-yl]acetate], for which the “MIC (A. fum.) 1008” value against A. fum. (setting [3]) is greater than 16 µg/mL. Moreover, the “MIC (A. fum.) Si-l” value against A. fum. (setting [4]) is less than 16 µg/mL.

On to `COC(=O)C(CCSC)n1cnn([C@H](C)[C@](O)(Cn2cncn2)c2ccc(F)cc2F)c1=S` (stereo partly drawn) [Compound No. 52, Methyl-2-methylthioethyl-2-[[(1R,2R)-2-(2,4-difluorophenyl)-2-hydroxy-1-methyl-3-(1H-1,2,4-triaolyl)propyl]-(2H,4H)-1,2,4-triazol-3-thion-4-yl]acetate], for which the “MIC (A. fum.) 1008” value against A. fum. (setting [3]) is greater than 16 µg/mL. In addition, the “MIC (A. fum.) Si-l” value in the experiment with A. fum. (setting [4]) is greater than 16 µg/mL.

With `C[C@@H](n1ncn(Cc2ccco2)c1=S)[C@](O)(Cn1cncn1)c1ccc(F)cc1F` [Compound No. 53, 2-[(1R,2R)-2-(2,4-Difluorophenyl)-2-hydroxy-1-methyl-3-(1H-1,2,4-triazol-1-yl)propyl]-4-[2-furanmethyl]-(2H,4H)-1,2,4-triazol-3-thione], the “MIC (A. fum.) 1008” value in the experiment on A. fum. (setting [3]) is 8 µg/mL (≈ 18.5 µM). The “MIC (A. fum.) Si-l” value with A. fum. (setting [4]) is 4 µg/mL (≈ 9.25 µM).

Consider `C[C@@H](n1ncn(-c2ccc(Cl)cn2)c1=S)[C@](O)(Cn1cncn1)c1ccc(F)cc1F` [Compound No. 55, 2-[(1R,2R)-2-(2,4-Difluorophenyl)-2-hydroxy-1-methyl-3-(1H-1,2,4-triazol-1-yl)propyl]-4-[3-chloropyridin-6-yl]-(2H,4H)-1,2,4-triazol-3-thione], for which the MIC with A. fum. (setting [5]) was found to be 4 µg/mL (≈ 8.62 µM); with A. fum. (setting [6]), 2 µg/mL (≈ 4.31 µM).

With `C[C@@H](c1ncncc1F)[C@](O)(Cn1cncn1)c1ccc(F)cc1F` [Voriconazole], the “fold greater inhibition of ergosterol P450DM compared to fluconazole” value is 1.6 fold in experiment [1] and 160 fold in experiment [2].
